{"source": "patent US20250339396A1", "about": "(COSMAS THERAPEUTICS DEVELOPMENT INC., priority 2021, published 2025)", "system": "neuropathic (SNI) rats", "experiment": "Sleep restoration in neuropathic rats, 24 h EEG/EMG recordings (REM, NREM, wakefulness, sleep fragmentation index)", "format": "in vivo, rat", "settings": "for NREM 24 h, mean difference (Bonferroni's multiple comparison test) / REM 24 h, mean difference (Bonferroni's multiple comparison test) / Wake 24 h, mean difference (Bonferroni's multiple comparison test) / SFI (sleep fragmentation index), mean difference (Bonferroni's multiple comparison test): Prodrug D 150 mg/kg, neuropathic (SNI) rats; for NREM 24 h, mean difference (Bonferroni's multiple comparison test) / REM 24 h, mean difference (Bonferroni's multiple comparison test) / Wake 24 h, mean difference (Bonferroni's multiple comparison test): 24 h EEG/EMG; for SFI (sleep fragmentation index), mean difference (Bonferroni's multiple comparison test): awakenings in 24 h divided by total sleep time in hours", "protocol": "Wistar rats weighted 120 g at the beginning of the experiment were housed under standard conditions, at a constant temperature of 22° C., with food and water provided ad libitum and under a 12 h light/dark cycle (lights on at 7:00 AM; lights off at 7:00 PM). All experimental procedures and surgeries were approved by the Animal Ethics Committee of local institutional committee for animal use and care (McGill University, Canada), following the Canadian Institute of Health Research for animal care and scientific use.\nOnly animals presenting allodynia (mean 2.5 gr) 14 days after SNI surgery, were then implanted EEG/EMG electrode, for 24 hours electrical recording and non-allodynic rat were excluded.\nSham and neuropathic rats were deeply anesthetized with isoflurane (5% for induction, 2-3% for maintenance) and placed in a stereotaxic frame. For EEG monitoring, three stainless-steel epidural electrodes were positioned through 1.5 mm burr holes at-2 mm anteroposterior (AP) and −3 mm lateral (L), −4.5 mm AP and +3 mm L, −7 mm AP and […] according to bregma (Paxinos and Watson 2006). For the EMG signal, three flexible stainless-steel wires were implanted into the neck muscle. Then, wires and connectors were fixed to the skull using dental acrylic (Coltene/Whaledent Inc. USA). Rats were given 5 days to recovery (Ochoa-Sanchez, et al., 2011).\n24-h after electrode implantation surgery, rats were placed for habituation in the recording room from 12:00 PM to 9:00 PM on a daily basis. During this time, the rats were placed in the recording chambers and connected to a flexible 6-flat cable (3M Scotchflex®), in a freely moving manner. No recordings were performed, but tolerance to the cable, and sleep behavior were observed. The day 5 of habituation, recordings were performed for 24 h, starting at 6:00 PM.\nProdrug D (150 mg/kg) was dissolved in 40% PEG 400 and 60% water (about 2.5 mL average for rats by gavage) and was administered at 6 am and 6 pm.\nThe amplification of EEG/EMG signals were at the total gain of 10.000. EEG/EMG signals were digitalized by a CED 1401 interface system, processed on-line, and analyzed off-line by Spike 2 software, in parallel with analog-to-digital samplings of amplified (Grass, P55) polygraphic signals (EEG; sampling rate, 100 or 200 Hz). Consecutive 10-s epochs were subjected to a Fast Fourier Transform (FFT) and EEG power spectra density was computed in the frequency range of 0-64 Hz (Ochoa-Sanchez, R et al., 2011).\nAnalysis was made offline using the spike 2 software (Cambridge). Three classical sleep stages are identified using EEG and EMG recordings. Wakefulness was determined by a sustained activity of EMG and low amplitude and high frequency of EEG. NREM (non-rapid eyes movement) sleep was characterized by high amplitude […] (1-4 Hz) and low muscle activity. REM (rapid eyes movement) sleep was marked with muscle atonia as observed in EMG and low amplitude […] in EEG (6-11). Only period longer than 10 seconds was marked for further analysis of awake, REM and NREM sleep, in order to eliminate the transitional period such as drowsiness (Ochoa-Sanchez, R et al., 2011).\nGiven the changes induced by the neuropathy on sleep parameters, we then calculate the sleep fragmentation index (SFI). SFI was calculated as the total number of awakenings in 24 h divided by the total sleep time in hours.\nData analysis was done using GraphPad Prism statistical software version 5.04 […]. One-way ANOVA was performed for 24 h time of REM, NREM and wakefulness as well as sleep fragmentation index. Post-hoc analyses were performed using the Bonferroni t-test comparisons. All data are expressed as mean±SEM. P<0.05 was considered significant.", "key": {"[1]": {"settings": "SNI rats, 150 mg/kg by gavage at 6 am and 6 pm"}}}
{"compound": "CC(=O)N(CCN(c1ccc(F)cc1)c1cccc(Br)c1)C(=O)OCOC(=O)CN.Cl", "note": "[Prodrug D, ((acetyl(2-((3-bromophenyl)(4-fluorophenyl)amino)ethyl)carbamoyl)oxy)methyl 2-aminoacetate hydrochloride]", "values": [{"measurement": "NREM 24 h, mean difference (Bonferroni's multiple comparison test)", "setting": "Control vs SNI + Prodrug D", "value": "−236.5"}, {"measurement": "REM 24 h, mean difference (Bonferroni's multiple comparison test)", "setting": "Control vs SNI + Prodrug D", "value": "−107"}, {"measurement": "Wake 24 h, mean difference (Bonferroni's multiple comparison test)", "setting": "Control vs SNI + Prodrug D", "value": 343.4}, {"measurement": "SFI (sleep fragmentation index), mean difference (Bonferroni's multiple comparison test)", "setting": "Control vs SNI + Prodrug D", "value": 0.2758}, {"measurement": "REM time, NREM time and time in wakefulness during 24 h", "setting": "[1]", "value": "restore all the three parameters"}, {"measurement": "sleep fragmentation index (SFI)", "setting": "[1]", "value": "reverse the fragmentation"}, {"measurement": "NREM 24 h, mean difference (Bonferroni's multiple comparison test)", "setting": "Sham vs SNI + Prodrug D", "value": "−62.39"}, {"measurement": "REM 24 h, mean difference (Bonferroni's multiple comparison test)", "setting": "Sham vs SNI + Prodrug D", "value": "−44.39"}, {"measurement": "Wake 24 h, mean difference (Bonferroni's multiple comparison test)", "setting": "Sham vs SNI + Prodrug D", "value": 106.8}, {"measurement": "SFI (sleep fragmentation index), mean difference (Bonferroni's multiple comparison test)", "setting": "Sham vs SNI + Prodrug D", "value": 0.01886}]}
